Numbers after ± are expanded uncertainties.
Assay: xn = mol fraction of the nth substance listed
Settings: 101 kPa, Liquid; for viscosity: Capillary tube (Ostwald / Ubbelohde) method

CCCCCCCCC [nonane] + COC(C)(C)C
Settings	mass density [kg/m3]	viscosity [mPa·s]
273.15 K, x2 = 0	733.184 ± 0.57	0.972 ± 0.01
273.15 K, x2 = 0.1006	–	0.912 ± 0.01
273.15 K, x2 = 0.1085	734.69 ± 0.57	–
273.15 K, x2 = 0.1722	735.67 ± 0.57	–
273.15 K, x2 = 0.2026	–	0.85 ± 0.01
273.15 K, x2 = 0.2995	–	0.796 ± 0.01
273.15 K, x2 = 0.3037	737.89 ± 0.56	–
273.15 K, x2 = 0.4011	739.94 ± 0.55	–
273.15 K, x2 = 0.4045	–	0.74 ± 0.009
273.15 K, x2 = 0.5003	–	0.688 ± 0.009
273.15 K, x2 = 0.5008	742.31 ± 0.55	–
273.15 K, x2 = 0.6005	745.08 ± 0.54	–
273.15 K, x2 = 0.6035	–	0.632 ± 0.009
273.15 K, x2 = 0.6992	748.17 ± 0.54	–
273.15 K, x2 = 0.6998	–	0.586 ± 0.009
273.15 K, x2 = 0.7975	–	0.54 ± 0.009
273.15 K, x2 = 0.8005	751.89 ± 0.54	–
273.15 K, x2 = 0.8925	755.81 ± 0.54	–
273.15 K, x2 = 0.8971	–	0.491 ± 0.009
278.15 K, x2 = 0	729.335 ± 0.58	0.896 ± 0.01
278.15 K, x2 = 0.1006	–	0.842 ± 0.01
278.15 K, x2 = 0.1085	730.78 ± 0.57	–
278.15 K, x2 = 0.1722	731.71 ± 0.57	–
278.15 K, x2 = 0.2026	–	0.787 ± 0.01
278.15 K, x2 = 0.2995	–	0.738 ± 0.009
278.15 K, x2 = 0.3037	733.82 ± 0.56	–
278.15 K, x2 = 0.4011	735.78 ± 0.56	–
278.15 K, x2 = 0.4045	–	0.689 ± 0.009
278.15 K, x2 = 0.5003	–	0.641 ± 0.009
278.15 K, x2 = 0.5008	738.04 ± 0.55	–
278.15 K, x2 = 0.6005	740.68 ± 0.55	–
278.15 K, x2 = 0.6035	–	0.591 ± 0.009
278.15 K, x2 = 0.6992	743.64 ± 0.55	–
278.15 K, x2 = 0.6998	–	0.549 ± 0.009
278.15 K, x2 = 0.7975	–	0.505 ± 0.009
278.15 K, x2 = 0.8005	747.2 ± 0.54	–
278.15 K, x2 = 0.8925	750.95 ± 0.55	–
278.15 K, x2 = 0.8971	–	0.46 ± 0.009
283.15 K, x2 = 0	725.473 ± 0.59	0.828 ± 0.01
283.15 K, x2 = 0.1006	–	0.78 ± 0.01
283.15 K, x2 = 0.1085	726.84 ± 0.58	–
283.15 K, x2 = 0.1722	727.73 ± 0.58	–
283.15 K, x2 = 0.2026	–	0.731 ± 0.009
283.15 K, x2 = 0.2995	–	0.687 ± 0.009
283.15 K, x2 = 0.3037	729.73 ± 0.57	–
283.15 K, x2 = 0.4011	731.59 ± 0.56	–
283.15 K, x2 = 0.4045	–	0.643 ± 0.009
283.15 K, x2 = 0.5003	–	0.598 ± 0.009
283.15 K, x2 = 0.5008	733.74 ± 0.56	–
283.15 K, x2 = 0.6005	736.26 ± 0.55	–
283.15 K, x2 = 0.6035	–	0.554 ± 0.009
283.15 K, x2 = 0.6992	739.08 ± 0.55	–
283.15 K, x2 = 0.6998	–	0.514 ± 0.009
283.15 K, x2 = 0.7975	–	0.474 ± 0.009
283.15 K, x2 = 0.8005	742.47 ± 0.55	–
283.15 K, x2 = 0.8925	746.06 ± 0.55	–
283.15 K, x2 = 0.8971	–	0.433 ± 0.009
288.15 K, x2 = 0	721.603 ± 0.59	0.768 ± 0.009
288.15 K, x2 = 0.1006	–	0.726 ± 0.009
288.15 K, x2 = 0.1085	722.9 ± 0.59	–
288.15 K, x2 = 0.1722	723.73 ± 0.58	–
288.15 K, x2 = 0.2026	–	0.681 ± 0.009
288.15 K, x2 = 0.2995	–	0.641 ± 0.009
288.15 K, x2 = 0.3037	725.62 ± 0.57	–
288.15 K, x2 = 0.4011	727.39 ± 0.57	–
288.15 K, x2 = 0.4045	–	0.6 ± 0.009
288.15 K, x2 = 0.5003	–	0.56 ± 0.009
288.15 K, x2 = 0.5008	729.43 ± 0.56	–
288.15 K, x2 = 0.6005	731.81 ± 0.56	–
288.15 K, x2 = 0.6035	–	0.52 ± 0.009
288.15 K, x2 = 0.6992	734.49 ± 0.56	–
288.15 K, x2 = 0.6998	–	0.484 ± 0.009
288.15 K, x2 = 0.7975	–	0.446 ± 0.009
288.15 K, x2 = 0.8005	737.72 ± 0.55	–
288.15 K, x2 = 0.8925	741.13 ± 0.56	–
288.15 K, x2 = 0.8971	–	0.407 ± 0.009
293.15 K, x2 = 0	717.725 ± 0.6	0.716 ± 0.009
293.15 K, x2 = 0.1006	–	0.677 ± 0.009
293.15 K, x2 = 0.1085	718.92 ± 0.59	–
293.15 K, x2 = 0.1722	719.72 ± 0.59	–
293.15 K, x2 = 0.2026	–	0.637 ± 0.009
293.15 K, x2 = 0.2995	–	0.601 ± 0.009
293.15 K, x2 = 0.3037	721.51 ± 0.58	–
293.15 K, x2 = 0.4011	723.16 ± 0.57	–
293.15 K, x2 = 0.4045	–	0.564 ± 0.009
293.15 K, x2 = 0.5003	–	0.526 ± 0.009
293.15 K, x2 = 0.5008	725.09 ± 0.57	–
293.15 K, x2 = 0.6005	727.34 ± 0.57	–
293.15 K, x2 = 0.6035	–	0.489 ± 0.009
293.15 K, x2 = 0.6992	729.87 ± 0.56	–
293.15 K, x2 = 0.6998	–	0.455 ± 0.009
293.15 K, x2 = 0.7975	–	0.418 ± 0.009
293.15 K, x2 = 0.8005	732.94 ± 0.56	–
293.15 K, x2 = 0.8925	736.17 ± 0.56	–
293.15 K, x2 = 0.8971	–	0.384 ± 0.009
298.15 K, x2 = 0	713.834 ± 0.6	0.669 ± 0.009
298.15 K, x2 = 0.1006	–	0.634 ± 0.009
298.15 K, x2 = 0.1085	714.95 ± 0.6	–
298.15 K, x2 = 0.1722	715.7 ± 0.59	–
298.15 K, x2 = 0.2026	–	0.598 ± 0.009
298.15 K, x2 = 0.2995	–	0.564 ± 0.009
298.15 K, x2 = 0.3037	717.36 ± 0.59	–
298.15 K, x2 = 0.4011	718.92 ± 0.58	–
298.15 K, x2 = 0.4045	–	0.529 ± 0.009
298.15 K, x2 = 0.5003	–	0.496 ± 0.009
298.15 K, x2 = 0.5008	720.73 ± 0.58	–
298.15 K, x2 = 0.6005	722.84 ± 0.57	–
298.15 K, x2 = 0.6035	–	0.461 ± 0.009
298.15 K, x2 = 0.6992	725.22 ± 0.57	–
298.15 K, x2 = 0.6998	–	0.43 ± 0.009
298.15 K, x2 = 0.7975	–	0.396 ± 0.009
298.15 K, x2 = 0.8005	728.11 ± 0.57	–
298.15 K, x2 = 0.8925	731.18 ± 0.57	–
298.15 K, x2 = 0.8971	–	0.363 ± 0.009
303.15 K, x2 = 0	709.929 ± 0.61	0.628 ± 0.009
303.15 K, x2 = 0.1006	–	0.596 ± 0.009
303.15 K, x2 = 0.1085	710.96 ± 0.6	–
303.15 K, x2 = 0.1722	711.66 ± 0.6	–
303.15 K, x2 = 0.2026	–	0.563 ± 0.009
303.15 K, x2 = 0.2995	–	0.532 ± 0.009
303.15 K, x2 = 0.3037	713.21 ± 0.59	–
303.15 K, x2 = 0.4011	714.65 ± 0.59	–
303.15 K, x2 = 0.4045	–	0.498 ± 0.009
303.15 K, x2 = 0.5003	–	0.468 ± 0.009
303.15 K, x2 = 0.5008	716.34 ± 0.58	–
303.15 K, x2 = 0.6005	718.32 ± 0.58	–
303.15 K, x2 = 0.6035	–	0.436 ± 0.009
303.15 K, x2 = 0.6992	720.55 ± 0.57	–
303.15 K, x2 = 0.6998	–	0.408 ± 0.009
303.15 K, x2 = 0.7975	–	0.377 ± 0.009
303.15 K, x2 = 0.8005	723.25 ± 0.57	–
303.15 K, x2 = 0.8925	726.13 ± 0.57	–
308.15 K, x2 = 0	–	0.59 ± 0.009
308.15 K, x2 = 0.1006	–	0.56 ± 0.009
308.15 K, x2 = 0.2026	–	0.531 ± 0.009
308.15 K, x2 = 0.2995	–	0.502 ± 0.009
308.15 K, x2 = 0.4045	–	0.47 ± 0.009
308.15 K, x2 = 0.5003	–	0.443 ± 0.009
308.15 K, x2 = 0.6035	–	0.413 ± 0.009

From the NIST ThermoML archive (doi:10.1021/je700428f)
